Laboratory results as given in paper PMC11597202, “Novel Thiazole-Fused [4,5-g] or [5,4-g]Quinazolin-8-ones and Their Quinazoline Analogues: Synthesis and Biological Evaluation” (Pharmaceuticals, 2024).

Legend:
[1] = In vitro cytotoxic assay, Huh7-D12; assay type: cell-based; details: human, Huh7-D12 cells (liver cancer cell line)
Procedure: (§1) Skin normal fibroblastic cells were purchased from Lonza (Basel, Switzerland). […] All culture media were supplemented by 10% of FBS, 1% of penicillin–streptomycin and 2 mM glutamine.
(§2) Chemicals were solubilized in DMSO at a concentration of 10 mM (stock solution) and diluted in culture medium to the desired final concentrations. […] Cells were plated in 96-well plates (4000 cells/well). Twenty-four hours after seeding, the cells were exposed to chemicals. […] Image acquisition and analysis were performed using a Cellomics ArrayScan VTI/HCS Reader (ThermoScientific, Les Ulis, France). The survival percentages were calculated as the percentage of cell number after compound treatment over cell number after DMSO treatment. The relative IC50 values were calculated using the curve fitting XLfit 5.5.0.5 (idbs) integrated in Microsoft Excel as an add-on.
(§3) 4.3.1. Cell culture. Skin normal fibroblastic cells are purchased from Lonza (Basel, Switzerland). Huh7- […]
(§4) from ATCC (American Type Culture Collection). […]
(§5) supplemented by 10% of FBS, 1% of penicillin-streptomycin and 2 mM glutamine.
(§6) 4.3.2. Cytotoxic assay. Chemicals were solubilized in DMSO at a concentration of 10 mM (stock solution) and diluted in culture medium to the desired final concentrations. The dose effect cytotoxic assays (IC50 determination) were performed by increasing the concentrations of each chemical (final well […]
(§7) Cells were plated in 96-well plates
(§8) (4000 cells/well). Twenty-four hours after seeding, cells were exposed to chemicals. After 48h of treatment, cells were washed in PBS and fixed in cooled 90% ethanol/5% acetic acid for 20 min and the […]
(§9) Image acquisition and analysis were performed using a Cellomics ArrayScan VTI/HCS Reader (ThermoScientific). The survival percentages were calculated as the percentage of cell number after compound treatment over cell number after DMSO treatment. The relative IC50 were calculated using the curve fitting XLfit 5.5.0.5 (idbs) integrated in Microsoft Excel as an add-on. The 4 Parameter Logistic Model or Sigmoidal Dose-Response Model describing the sigmoid-shaped response pattern was used (fit = (A+[(B-A)/(1+[(C/x)^D])]) where fit is the response and X is the tested concentration of the compound. The lower asymptote is A (also referred to as the bottom of the curve or lower plateau or the min) and the upper asymptote is B (also referred to as the top of the curve or upper plateau or the max). The slope of the linear part of the curve is described by the factor D. The parameter C is the concentration corresponding to the response midway between A and B. C is called “relative IC50” because it refers to the maximum response obtained by a […]
(§10) The results are represented as the mean ± standard error (SE) calculated from at least three independent experiments.

[2] = In vitro cytotoxic assay, MCF-7; assay type: cell-based; details: human, MCF-7 cells (breast cancer cell line); note: 0.1-25 µM tested
Procedure: as §1, §2, §3, §4, §5, §6, §7, §8, §9, §10

[3] = In vitro cytotoxic assay, PC-3; assay type: cell-based; details: human, PC-3 cells (prostate cancer cell line); note: 0.1-25 µM tested
Procedure: as §1, §2, §3, §4, §5, §6, §7, §8, §9, §10

[4] = In vitro cytotoxic assay, MDA-MB-468; assay type: cell-based; details: human, MDA-MB-468 cells (breast cancer cell line); read-out: In vitro cytotoxic activity IC50, MBA-MB4-68
Procedure: as §1, §2, §3, §4, §5, §6, §7, §8, §9, §10

[5] = In vitro cytotoxic assay, Caco-2; assay type: cell-based; details: human, Caco-2 cells (colon cancer cell line); note: 0.1-25 µM tested
Procedure: as §1, §2, §3, §4, §5, §6, §7, §8, §9, §10

[6] = In vitro cytotoxic assay, MDA-MB-231; assay type: cell-based; details: human, MDA-MB-231 cells (breast cancer cell line); read-out: In vitro cytotoxic activity IC50, MBA-MB-231; note: 0.1-25 µM tested
Procedure: as §1, §2, §3, §4, §5, §6, §7, §8, §9, §10

[7] = In vitro cytotoxic assay, HCT-116; assay type: cell-based; details: human, HCT-116 cells (colon cancer cell line)
Procedure: as §1, §2, §3, §4, §5, §6, §7, §8, §9, §10

seven tumor cell lines = assay: In vitro cytotoxic assay, whole panel of cancer cell lines; assay type: cell-based, human; details: Homo sapiens; lowest to highest IC50 among the seven cancer cell lines, 48 h; read-out: IC50 span over the cancer cell lines
Procedure: as §1, §2, §3, §4, §5, §6, §7, §8, §9, §10

SMILES | melting point [°C] | IC50 at 48 h [1] [µM] | IC50 at 48 h [2] [µM] | IC50 at 48 h [3] [µM] | IC50 at 48 h [4] [µM] | IC50 at 48 h [5] [µM] | IC50 at 48 h [6] [µM] | IC50 at 48 h [7] [µM] | IC50 (seven tumor cell lines) [µM]
COc1ccc(Nc2ncnc3cc4sc(C#N)nc4cc23)c(F)c1 [Compound 14a, 8-[(2-Fluoro-4-methoxyphenyl)amino]thiazolo[4,5-g]quinazoline-2-carbonitrile] | 259 to 260 |  |  |  |  |  |  |  | 
COc1ccc(Nc2ncnc3cc4nc(C#N)sc4cc23)c(F)c1 [Compound 14b, 8-[(2-Fluoro-4-methoxyphenyl)amino]thiazolo[5,4-g]quinazoline-2-carbonitrile] | 255 to 256 |  |  |  |  |  |  |  | 
COc1cccc2c1C(=O)c1c(O)c3c(c(O)c1C2=O)C[C@@](O)(C(=O)CO)C[C@@H]3O[C@H]1C[C@H](N)[C@H](O)[C@H](C)O1 [Doxo, Doxorubicin, reference compound] |  | 0.03 | 0.05 | 0.08 | 0.04 | 0.03 | 0.02 | 0.05 | 
N#Cc1nc2cc3c(=O)n(Cc4ccccc4)cnc3cc2s1 [Compound 5a, 7-Benzyl-8-oxo-7,8-dihydrothiazolo[4,5-g]quinazoline-2-carbonitrile] | 237 to 238 | > 25 | 8 | 9 | 11 | 10 | > 25 | 7 | 7 to 62
CC(=O)O[C@H]1C(=O)[C@@]2(C)[C@H]([C@H](OC(=O)c3ccccc3)[C@]3(O)C[C@H](OC(=O)[C@H](O)[C@@H](NC(=O)c4ccccc4)c4ccccc4)C(C)=C1C3(C)C)[C@]1(OC(C)=O)CO[C@@H]1C[C@@H]2O [Taxol, reference compound] |  | 0.016 | 0.006 | 0.004 | 0.003 | 0.02 | 0.01 | 0.003 | 
N#Cc1nc2ccc3c(=O)n(Cc4ccccc4)cnc3c2s1 [Compound 5d, 7-Benzyl-6-oxo-6,7-dihydrothiazolo[4,5-h]quinazoline-2-carbonitrile] |  | 18 | 12 | 11 | 11 | 9 | 14 | 7 | 7 to 18
N#Cc1nc2c(ccc3c(=O)n(Cc4ccccc4)cnc32)s1 [Compound 5c, 7-Benzyl-6-oxo-6,7-dihydrothiazolo[5,4-h]quinazoline-2-carbonitrile] | 273 to 274 | 17 | 16 | 12 | 10 | 11 | 24 | 4 | 4 to 24
N#Cc1nc2cc3ncn(Cc4ccccc4)c(=O)c3cc2s1 [Compound 5b, 7-Benzyl-8-oxo-7,8-dihydrothiazolo[5,4-g]quinazoline-2-carbonitrile] | 217 to 218 | 3 | 2 | 2 | 1 | 1 | 3 | 2 | 1 to 3
